Test results: patent US12233073B2, “Skin care formulations and skin cancer treatment” (Regents of the University of Minnesota, priority 2017, dated 2025)
Read-outs that look alike come from different tables or passages of the source.

How the values were obtained:
[1] = test system: skin of SKH-1 hairless mice; assay: H&E staining of skin of mice treated with anti-sUV agents; assay type: in vivo, mouse; settings: solar UV-exposed groups G13-G24
Text: FIG. 40 is a photograph comparing H&E (hematoxylin and eosin) stained tissue sample of mice exposed to solar ultraviolet and treated with anti-sUV agents and mice unexposed to solar ultraviolet. H&E staining can show skin damage (see TABLE 5 for group identification). […] None of the compounds in the absence of solar UV caused any damage and none had any adverse effect on skin thickness. G11 and G12 are the positive controls, being groups treated with solar UV without or with vehicle (cream).

[2] = test system: SSL-induced skin tumors in SKH-1 hairless mice
Method: The effectiveness of different candidate compounds in preventing sUV-induced cancer was evaluated. SKH-1 hairless mice (Charles River, Burlington, Massachusetts) were treated with formulations including one or more candidate compounds and exposed to SSL (solar simulated light). Female mice aged 5-6 weeks at the beginning of the study were used. The mice were exposed to SSL three times a week for 15 weeks from the beginning of the study. At week 1, the SSL dose included 37 kJ/m^2 UVA and 1.8 kJ/m^2 UVB three times per week. […] At week 6, the dose included 60 kJ/m^2 UVA and 2.9 kJ/m^2 UVB and this dose was maintained until week 15 at which time SSL exposure was stopped. Each mouse received a topical application (on the dorsal skin surface posterior to the base of the neck and anterior to the base of the tail) of one or more candidate compounds in a base cream one hour before SSL exposure. 15 weeks onwards, the mice were no longer exposed to SSL but the topical application of cream with sunscreen compounds was continued until 30 weeks. Control mice received topical application of cream with sunscreen compounds but no SSL.
Tumors were counted by sight. The dimensions of each tumor were measured using a digital caliper. Tumor volume (mm^3) was determined as (length×width^2)×0.52, where the length and width were measured in mm. […] Average or total tumor volumes were compared between vehicle (cream)-treated mice exposed to SSL and compound in cream-treated mice exposed to SSL.

Ki-67 = Ki-67 immunohistological staining of skin of mice treated with anti-sUV agents; assay type: in vivo, mouse; settings: solar UV-exposed groups
Text: FIG. 41 is a photograph comparing Ki-67 immunohistological-stained tissue samples of mice exposed to solar ultraviolet and treated with anti-sUV agents and mice unexposed to solar ultraviolet.

[3] = following one hour of exposure to sunlight; cited from earlier work
[4] = SSL-exposed, compound in cream, percent per TABLE 5
[5] = SSL-exposed, compound in cream, percent per TABLE 5, 15 mice
[6] = no SSL exposure, compound in cream, percent per TABLE 5
[7] = female, SKH-1 hairless, mouse, in vivo, 30 weeks

| Compound | H&E staining: epidermal thickening and skin damage [1] | % Effective Protection (% reduction in tumor volume vs SSL with cream only) [2, 4] [%] | % Mice with tumor [2, 5] [%] | % Mortality [2, 5] | Average volume of tumors [2, 5] [mm^3] | Avg. no. of tumors [2, 5] | Number of dead mice [2, 5] | Total no. of tumors [2, 5] | Total volume of tumors [2, 5] [mm^3] | % Mice with tumor ([2]; mouse, in vivo) [%] | % Mortality/Number of dead mice [2, 6] | Total/Average volume of tumors [2, 6] | Total/Avg. no. of tumors [2, 6] | Ki-67 staining: abnormal cell proliferation (Ki-67) | % Mice with tumor [2, 7] [%] | % Mice with tumor ([2]; no SSL exposure, compound in cream, percent per TABLE 5, 30 weeks) [%] | change in UV absorbance [3] |
| --- | --- | --- | --- | --- | --- | --- | --- | --- | --- | --- | --- | --- | --- | --- | --- | --- | --- |
| Titanium dioxide | epidermal thickening and skin damage | 89.2 | 100 | 13.3% | 18.4 | 2.6 | 2 | 39 | 275.6 | 0 | 0 | 0 | 0 |  |  |  |  |
| CC1CC(OC(=O)c2ccccc2O)CC(C)(C)C1 (centres unmarked) [Homosalate] | intense damage | 83.6 | 80 | 6.7% | 27.7 | 2.6 | 1 | 39 | 415.7 |  | 0 | 0 | 0 | extensive abnormal proliferation | 0 |  |  |
| COc1ccc(C(=O)c2ccccc2)c(O)c1 [Oxybenzone] | epidermal thickening but less damage | 91.2 | 86.7 | 6.7% | 14.3 | 2.3 | 1 | 35 | 213.7 |  | 0 | 0 | 0 |  | 0 |  |  |
| CCCCC(CC)COC(=O)c1ccccc1O (centres unmarked) [Octisalate] | epidermal thickening and skin damage | 70.1 | 100 | 66.7% | 50.6 | 2.6 | 10 | 39 | 758.4 |  | 0 | 0 | 0 |  | 0 |  |  |
| CCCCC(CC)COC(=O)C=Cc1ccc(OC)cc1 (centres unmarked) [Octinoxate] | epidermal thickening but less damage | 93.9 | 80 | 13.3% | 10.4 | 1.4 | 2 | 21 | 156.02 |  | 0 | 0 | 0 |  | 0 |  |  |
| [O]=[Zn] [Zinc oxide] | most protected |  | 6.7 | 0/0% | 0.8 | 0.13 | 0/0 | 2 | 11.2 |  | 0 | 0 | 0 | least amount of abnormal proliferation |  | 0 |  |
| CCCCC(CC)COC(=O)C(C#N)=C(c1ccccc1)c1ccccc1 (centres unmarked) [Octocrylene] | epidermal thickening and skin damage | 90.3 | 66.7 | 0/0% | 16.5 | 1.7 | 0/0 | 25 | 246.7 |  | 0 | 0 | 0 |  | 0 |  |  |
| COc1ccc(C(=O)CC(=O)c2ccc(C(C)(C)C)cc2)cc1 [Avobenzone] | epidermal thickening and skin damage | 72.8 | 93.3 | 6.7% | 46.1 | 3.7 | 1 | 55 | 691.5 |  | 0 | 0 | 0 | extensive abnormal proliferation | 0 |  | approximately 36% |
